Patent US7019029B2, “Skin whiteners containing hydroxytetronic acid derivatives” (priority 2000, dated 2006)

Test system: hyperpigmented skin areas of melasma patients
Experiment: Study in melasma patients: topical treatment of hyperpigmented skin areas
Assay type: in vivo, human
Conditions: oil-in-water emulsion containing about 10% compound, twice daily for 5 to 7 days, 4 melasma patients, observed in all the patients
Description: The efficacy of a preferred embodiment of the invention was tested in a clinical trial. An oil-in-water emulsion containing about 10% 4-diphenyl-2-hydroxytetronic acid was applied to various pigmented areas of the skin of 10 subjects twice daily. On normal pigmented skin types 2 and 3, visually apparent lightening was observed within 4 to 6 hours of application when compared to surrounding, untreated skin areas of the same subject. In another study, the hyperpigmented skin areas of 4 melasma patients were treated twice daily for 5 to 7 days.

O=C1OC(c2ccccc2)(c2ccccc2)C(O)=C1O [4-diphenyl-2-hydroxytetronic acid, 3,4-dihydroxy-5-diphenyl-2(5H)-furanone]
lightening of the pigmented lesions: Significant lightening
